Reference: patent US7829563B2, “Aminoamides as orexin antagonists” (Hoffmann-La Roche Inc., priority 2007, dated 2010)
Where a name gives a salt, the structure may show the parent alone.

target: T1, human orexin-2 (hOX2) receptors (Homo sapiens, UniProt O43614); assay: Intracellular Ca2+ mobilization assay (FLIPR), antagonism of orexin-A; format: cell-based; conditions: CHO(dHFr−) cells stably expressing hOX2; orexin-A at EC80 as agonist; Kb=IC50/(1+[A]/EC50); read-out: Kb (μM) OX2R (human)
T1 construct: expressed in transfected cells
T1 sequence (O43614 1-444): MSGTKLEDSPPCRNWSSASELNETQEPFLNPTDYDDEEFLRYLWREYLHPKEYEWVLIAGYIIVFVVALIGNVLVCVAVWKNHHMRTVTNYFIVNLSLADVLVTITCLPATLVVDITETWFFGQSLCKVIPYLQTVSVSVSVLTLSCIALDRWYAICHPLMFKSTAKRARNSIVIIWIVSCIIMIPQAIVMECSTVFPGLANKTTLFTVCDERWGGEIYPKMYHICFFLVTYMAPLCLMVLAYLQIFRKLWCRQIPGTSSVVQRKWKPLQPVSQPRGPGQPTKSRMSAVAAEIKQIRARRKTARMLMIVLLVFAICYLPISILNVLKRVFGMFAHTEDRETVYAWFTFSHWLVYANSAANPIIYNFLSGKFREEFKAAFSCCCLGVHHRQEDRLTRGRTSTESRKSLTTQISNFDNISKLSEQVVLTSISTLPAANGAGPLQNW
Description: R^7 and R^8 in scheme 5 are hydrogen, and the other substituents are as described above The compounds were investigated in accordance with the test given hereinafter. Intracellular Ca^2+ Mobilization Assay
The Chinese Hamster Ovary (dHFr−) mutant cell line stably expressing human orexin-1 (hOX1) or human orexin-2 (hOX2) receptors were maintained in Dulbecco's Modified Eagle Medium (1×) with GlutaMax™ 1, 4500 mg/L D-Glucose and Sodium Pyruvate (Catalog No. 31966-021, Invitrogen, Carlsbad, Calif.), 5% dialyzed fetal calf serum (Catalog No. 26400-044), 100 μg/ml penicillin and 100 μg/ml streptomycin. The cells were seeded at 5×10^4 cells/well in the poly-D-lysine treated, 96-well, black/clear-bottomed plates (Catalog No. BD356640, BD Biosciences, Palo Alto, Calif.). 24 h later, the cells were loaded for 1 h at 37° C. with 4 μM Flou-4 acetoxymethyl ester (Catalog No. F-14202, Molecular Probes, Eugene, Oreg.) in FLIPR buffer (1×HBSS, 20 mM HEPES, 2.5 mM Probenecid). Hanks' Balanced Salt Solution (HBSS) (10×) (catalog No. 14065-049) and HEPES (1M) (catalog No. 15630-056) were purchased from Invitrogen, Carlsbad, Calif. Probenecid (250 mM) (catalog No. P8761) was from Sigma, Buchs, Switzerland. The cells were washed five times with FLIPR buffer to remove excess dye and intracellular calcium mobilization, [Ca^2+]i were measured using a Fluorometric Imaging Plate Reader (FLIPR-96, Molecular Devices, Menlo Park, Calif.) as described previously (Malherbe et al., Mol. Pharmacol., 64, 823-832, 2003). Orexin A (catalog No. 1455, Toris Cookson Ltd, Bristol, UK) was used as agonist. Orexin A ([…] stock solution in DMSO) was diluted in FLIPR buffer+0.1% BSA. The EC50 and EC80 values of orexin-A were measured daily from standard agonist concentration-response curves in CHO(dHFr−)-OX1R and —OX2R cell lines. All compounds were dissolved in 100% DMSO. Inhibition curves were determined by addition of 11 concentrations (0.0001-10 μM) of inhibitory compounds and using EC80 value of orexin-A as agonist (a concentration which gave 80% of max agonist response, determined daily). The antagonists were applied 25 min (incubation at 37° C.) before the application of the agonist. Responses were measured as peak increase in fluorescence minus basal, normalized to the maximal stimulatory effect induced by EC80 value of orexin-A or orexin-B. Inhibition curves were fitted according to the Hill equation: y=100/(1+(x/IC50)^nH), where nH=slope factor using Excel-fit 4 software (Microsoft). Kb values were calculated according to the following equation Kb=IC50/(1+[A]/EC50) where A is the concentration of agonist added which is very close to agonist EC80 value, and IC50 and EC50 values were derived from the antagonist inhibition and orexin-A or B agonist curves, respectively.

In order of falling Kb:
1. CNC(=O)[C@H](N[C@H](CCc1ccc(C(F)(F)F)cc1)c1ccc(OC(F)F)c(OC(F)F)c1)c1ccccc1 (racemic) [Example 290, (S,R)-2-[(S,R)-1-(3,4-Bis-difluoromethoxy-phenyl)-3-(4-trifluoromethyl-phenyl)-propylamino]-N-methyl-2-phenyl-acetamide]  0.0536 µM
2. CNC(=O)C(NC(CCc1ccc(C)nc1)c1ccc(F)c(C)c1)c1ccccc1 (mixture of isomers) [Example 258, 2-[1-(4-Fluoro-3-methyl-phenyl)-3-(6-methyl-pyridin-3-yl)-propylamino]-N-methyl-2-phenyl-acetamide]  0.0172 µM
3. CNC(=O)[C@H](N[C@H](CCc1ccc(C(F)(F)F)nc1)c1ccc(Cl)c(OC)c1)c1ccc(F)cc1 (racemic) [Example 223, (S,R)-2-[(S,R)-1-(4-Chloro-3-methoxy-phenyl)-3-(6-trifluoromethyl-pyridin-3-yl)-propylamino]-2-(4-fluoro-phenyl)-N-methyl-acetamide]  0.0171 µM
4. CNC(=O)[C@@H](N[C@H](CCc1ccc(C(F)(F)F)cc1)c1cccc(OC)c1)c1ccccc1 [Example 222, (S)-2-[(R)-1-(3-Methoxy-phenyl)-3-(4-trifluoromethyl-phenyl)-propylamino]-N-methyl-2-phenyl-acetamide hydrochloride]  0.0171 µM
5. CNC(=O)[C@H](N[C@@H](CCc1ccc(Cl)nc1)c1ccc(OC(F)F)c(OC(F)F)c1)c1ccccc1 (racemic) [Example 296, (S,R)-2-[(R,S)-1-(3,4-Bis-difluoromethoxy-phenyl)-3-(6-chloro-pyridin-3-yl)-propylamino]-N-methyl-2-phenyl-acetamide]  0.013 µM
6. CNC(=O)[C@H](N[C@@H](CCc1ccc(C(F)(F)F)cc1)c1cc(C)ccc1F)c1ccccc1 [Example 123, (R)-2-[(S)-1-(2-Fluoro-5-methyl-phenyl)-3-(4-trifluoromethyl-phenyl)-propylamino]-N-methyl-2-phenyl-acetamide]  0.0129 µM
7. CNC(=O)[C@H](N[C@@H](CCc1ccc(C(F)(F)F)cc1)c1ccc2c(c1)OCCN2C)c1ccccc1 (racemic) [Example 78, (S,R)—N-Methyl-2-[(R,S)-1-(4-methyl-3,4-dihydro-2H-benzo[1,4]oxazin-7-yl)-3-(4-trifluoromethyl-phenyl)-propylamino]-2-phenyl-acetamide]  0.0127 µM
8. CNC(=O)[C@H](N[C@@H](CCc1ccc(C)cc1)c1ccc(F)c(C)c1)c1ccccc1 (racemic) [Example 365, (R,S)-2-[(S,R)-1-(4-Fluoro-3-methyl-phenyl)-3-p-tolyl-propylamino]-N-methyl-2-phenyl-acetamide]  0.0124 µM
9. CNC(=O)[C@H](N[C@H](CCc1ccc(C(F)(F)F)cc1)c1cc(C)on1)c1ccccc1 (racemic) [Example 301, (S,R)—N-Methyl-2-[(S,R)-1-(5-methyl-isoxazol-3-yl)-3-(4-trifluoromethyl-phenyl)-propylamino]-2-phenyl-acetamide]  0.0116 µM
10. CNC(=O)[C@H](N[C@@H](CCc1ccc(C(F)(F)F)nc1)c1ccc2c(c1)CCCC2)c1ccc(F)cc1 [Example 102, (R)-2-(4-Fluoro-phenyl)-N-methyl-2-[(S)-1-(5,6,7,8-tetrahydro-naphthalen-2-yl)-3-(6-trifluoromethyl-pyridin-3-yl)-propylamino]-acetamide]  0.0114 µM
11. CNC(=O)C(NC(CCc1ccc(C(F)(F)F)nc1)c1ccc(OC(F)F)c(OC(F)F)c1)c1ccccc1 (mixture of isomers) [Example 263, 2-[1-(3,4-Bis-difluoromethoxy-phenyl)-3-(6-trifluoromethyl-pyridin-3-yl)-propylamino]-N-methyl-2-phenyl-acetamide]  0.0102 µM
12. CNC(=O)[C@H](N[C@@H](CCc1ccc(C(F)(F)F)cc1)c1ccc2c(c1)CCCO2)c1ccccc1 [Example 113, (R)-2-[(S)-1-Chroman-6-yl-3-(4-trifluoromethyl-phenyl)-propylamino]-N-methyl-2-phenyl-acetamide]  0.0089 µM
13. CNC(=O)[C@H](N[C@@H](CCc1ccc(C(F)(F)F)cc1)c1ccc(OC)c(OC)c1)c1ccc(F)cc1 [Example 95, (R)-2-[(S)-1-(3,4-Dimethoxy-phenyl)-3-(4-trifluoromethyl-phenyl)-propylamino]-2-(4-fluoro-phenyl)-N-methyl-acetamide]  0.0086 µM
14. CNC(=O)[C@H](N[C@H](CCc1ccc(C(F)(F)F)nc1)c1ccc(Cl)c(OC)c1)c1ccccc1 (racemic) [Example 215, (S,R)-2-[(S,R)-1-(4-Chloro-3-methoxy-phenyl)-3-(6-trifluoromethyl-pyridin-3-yl)-propylamino]-N-methyl-2-phenyl-acetamide]  0.008 µM
15. Cc1cc([C@H](CCc2ccc(C(F)(F)F)nc2)N[C@@H](C(=O)NCCO)c2ccccc2)ccc1F (racemic) [Example 356, (R,S)-2-[(S,R)-1-(4-Fluoro-3-methyl-phenyl)-3-(6-trifluoromethyl-pyridin-3-yl)-propylamino]-N-(2-hydroxy-ethyl)-2-phenyl-acetamide]  0.0044 µM
16. CNC(=O)[C@H](N[C@@H](CCc1ccc(C(F)(F)F)nc1)c1ccc(F)c(C)c1)c1ccccc1 (racemic) [Example 228, (S,R)-2-[(R,S)-1-(4-Fluoro-3-methyl-phenyl)-3-(6-trifluoromethyl-pyridin-3-yl)-propylamino]-N-methyl-2-phenyl-acetamide]  0.0035 µM
17. CNC(=O)[C@H](N[C@@H](CCc1ccc(C(F)(F)F)nc1)c1ccc(C)c(OC)c1)c1ccccc1 (racemic) [Example 253, (S,R)-2-[(R,S)-1-(3-Methoxy-4-methyl-phenyl)-3-(6-trifluoromethyl-pyridin-3-yl)-propylamino]-N-methyl-2-phenyl-acetamide]  0.0034 µM
18. CNC(=O)[C@H](N[C@@H](CCc1ccc(C(F)(F)F)cc1)c1cccc(OC)c1)c1ccccc1 [Example 221, (R)-2-[(S)-1-(3-Methoxy-phenyl)-3-(4-trifluoromethyl-phenyl)-propylamino]-N-methyl-2-phenyl-acetamide hydrochloride]  0.0026 µM
19. CNC(=O)[C@H](N[C@H](CCc1ccc(C(F)(F)F)nc1)c1ccc(C)c(OC)c1)c1ccccc1 (racemic) [Example 252, (S,R)-2-[(S,R)-1-(3-Methoxy-4-methyl-phenyl)-3-(6-trifluoromethyl-pyridin-3-yl)-propylamino]-N-methyl-2-phenyl-acetamide]  0.0024 µM
20. CNC(=O)[C@H](N[C@@H](CCc1ccc(C(F)(F)F)nc1)c1ccc(C)c(C)c1)c1ccccc1 (racemic) [Example 251, (S,R)-2-[(R,S)-1-(3,4-Dimethyl-phenyl)-3-(6-trifluoromethyl-pyridin-3-yl)-propylamino]-N-methyl-2-phenyl-acetamide]  0.0022 µM
21. CNC(=O)[C@H](NC(CCc1ccc(C(F)(F)F)cc1)c1ccc(OC)c(OC)c1)c1ccccc1 (single isomer, unassigned) [Example 6, (R)-2-[(S or R)-1-(3,4-Dimethoxy-phenyl)-3-(4-trifluoromethyl-phenyl)-propylamino]-N-methyl-2-phenyl-acetamide]  0.0017 µM
22. CNC(=O)[C@H](N[C@@H](CCc1ccc(C(F)(F)F)nc1)c1ccc(Cl)c(OC)c1)c1ccc(Cl)cc1 (racemic) [Example 220, (S,R)-2-[(R,S)-1-(4-Chloro-3-methoxy-phenyl)-3-(6-trifluoromethyl-pyridin-3-yl)-propylamino]-2-(4-chloro-phenyl)-N-methyl-acetamide]  0.0015 µM
